Measured values reported in ChEMBL document CHEMBL5291721, “A preclinical secondary pharmacology resource illuminates target-adverse drug reaction associations of marketed drugs” (Nat Commun, 2023).

Key:
[1] = molecular target: Sodium-dependent dopamine transporter (Homo sapiens, UniProt Q01959)
D(1A) dopamine receptor = D(1A) dopamine receptor (Homo sapiens, UniProt P21728); assay type: functional, cell-based
[2] = molecular target: T1, 5-hydroxytryptamine receptor 3A (Homo sapiens, UniProt P46098); assay type: functional
T1 sequence (P46098 whole entry): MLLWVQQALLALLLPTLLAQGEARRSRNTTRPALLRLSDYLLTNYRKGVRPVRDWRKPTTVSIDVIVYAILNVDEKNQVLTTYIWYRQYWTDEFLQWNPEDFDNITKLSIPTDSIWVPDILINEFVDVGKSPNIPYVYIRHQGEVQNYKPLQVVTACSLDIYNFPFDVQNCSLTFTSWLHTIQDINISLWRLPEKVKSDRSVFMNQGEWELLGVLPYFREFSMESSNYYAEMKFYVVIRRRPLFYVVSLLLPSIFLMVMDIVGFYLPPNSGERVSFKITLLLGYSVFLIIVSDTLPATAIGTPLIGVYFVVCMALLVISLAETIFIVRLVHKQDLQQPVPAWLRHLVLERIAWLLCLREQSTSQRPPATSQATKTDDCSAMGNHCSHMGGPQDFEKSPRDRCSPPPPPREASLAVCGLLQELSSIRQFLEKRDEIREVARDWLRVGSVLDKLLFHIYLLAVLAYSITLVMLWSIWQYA

Adenosine receptor A2a = Adenosine receptor A2a (Homo sapiens, UniProt P29274)
Chain of Adenosine receptor A2a (P29274 whole entry): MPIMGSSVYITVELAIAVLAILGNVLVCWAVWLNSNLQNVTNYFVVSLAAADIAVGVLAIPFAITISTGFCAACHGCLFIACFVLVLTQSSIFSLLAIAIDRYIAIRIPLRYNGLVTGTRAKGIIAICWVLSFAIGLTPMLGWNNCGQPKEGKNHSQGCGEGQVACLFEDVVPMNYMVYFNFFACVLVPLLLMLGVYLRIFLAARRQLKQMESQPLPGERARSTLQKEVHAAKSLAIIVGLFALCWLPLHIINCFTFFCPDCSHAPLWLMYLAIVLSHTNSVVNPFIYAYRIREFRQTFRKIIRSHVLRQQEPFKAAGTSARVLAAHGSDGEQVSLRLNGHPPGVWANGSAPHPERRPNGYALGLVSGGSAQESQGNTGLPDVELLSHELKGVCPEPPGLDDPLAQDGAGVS

[3] = molecular target: Sodium-dependent noradrenaline transporter (Homo sapiens, UniProt P23975)
Chain of Sodium-dependent noradrenaline transporter (P23975 whole entry): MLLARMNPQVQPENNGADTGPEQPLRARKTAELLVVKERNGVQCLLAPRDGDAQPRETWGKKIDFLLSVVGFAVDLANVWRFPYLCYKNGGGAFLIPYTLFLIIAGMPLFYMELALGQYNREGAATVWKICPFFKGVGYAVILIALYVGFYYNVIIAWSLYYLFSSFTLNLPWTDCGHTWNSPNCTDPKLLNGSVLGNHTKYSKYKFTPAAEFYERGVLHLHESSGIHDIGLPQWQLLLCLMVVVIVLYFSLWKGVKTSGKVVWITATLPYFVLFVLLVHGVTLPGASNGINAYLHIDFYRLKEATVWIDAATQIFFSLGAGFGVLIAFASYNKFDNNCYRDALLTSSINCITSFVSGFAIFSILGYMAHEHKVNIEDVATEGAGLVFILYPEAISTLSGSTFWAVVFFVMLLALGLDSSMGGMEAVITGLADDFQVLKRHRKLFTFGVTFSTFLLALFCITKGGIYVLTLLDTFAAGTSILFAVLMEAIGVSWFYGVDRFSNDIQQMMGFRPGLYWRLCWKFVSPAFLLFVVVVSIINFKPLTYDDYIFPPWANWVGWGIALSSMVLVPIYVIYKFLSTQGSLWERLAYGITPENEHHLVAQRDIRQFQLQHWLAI

[4] = molecular target: T2, Alpha-2A adrenergic receptor (Homo sapiens, UniProt P08913); assay type: functional, cell-based
T2 sequence (P08913 whole entry): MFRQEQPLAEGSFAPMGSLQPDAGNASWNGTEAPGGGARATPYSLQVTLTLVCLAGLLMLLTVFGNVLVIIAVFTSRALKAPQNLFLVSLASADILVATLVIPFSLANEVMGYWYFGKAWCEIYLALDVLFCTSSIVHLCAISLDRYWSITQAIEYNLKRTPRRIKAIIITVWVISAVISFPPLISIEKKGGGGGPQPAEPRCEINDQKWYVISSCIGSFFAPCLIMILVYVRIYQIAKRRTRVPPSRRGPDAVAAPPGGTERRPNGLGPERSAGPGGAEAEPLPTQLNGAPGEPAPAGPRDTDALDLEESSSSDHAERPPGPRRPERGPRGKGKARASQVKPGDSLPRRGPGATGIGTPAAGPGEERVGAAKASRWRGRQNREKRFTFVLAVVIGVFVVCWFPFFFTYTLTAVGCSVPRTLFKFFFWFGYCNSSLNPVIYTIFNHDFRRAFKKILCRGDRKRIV

Glucocorticoid receptor = molecular target: T3, Glucocorticoid receptor (Homo sapiens, UniProt P04150)
T3 sequence (P04150 whole entry): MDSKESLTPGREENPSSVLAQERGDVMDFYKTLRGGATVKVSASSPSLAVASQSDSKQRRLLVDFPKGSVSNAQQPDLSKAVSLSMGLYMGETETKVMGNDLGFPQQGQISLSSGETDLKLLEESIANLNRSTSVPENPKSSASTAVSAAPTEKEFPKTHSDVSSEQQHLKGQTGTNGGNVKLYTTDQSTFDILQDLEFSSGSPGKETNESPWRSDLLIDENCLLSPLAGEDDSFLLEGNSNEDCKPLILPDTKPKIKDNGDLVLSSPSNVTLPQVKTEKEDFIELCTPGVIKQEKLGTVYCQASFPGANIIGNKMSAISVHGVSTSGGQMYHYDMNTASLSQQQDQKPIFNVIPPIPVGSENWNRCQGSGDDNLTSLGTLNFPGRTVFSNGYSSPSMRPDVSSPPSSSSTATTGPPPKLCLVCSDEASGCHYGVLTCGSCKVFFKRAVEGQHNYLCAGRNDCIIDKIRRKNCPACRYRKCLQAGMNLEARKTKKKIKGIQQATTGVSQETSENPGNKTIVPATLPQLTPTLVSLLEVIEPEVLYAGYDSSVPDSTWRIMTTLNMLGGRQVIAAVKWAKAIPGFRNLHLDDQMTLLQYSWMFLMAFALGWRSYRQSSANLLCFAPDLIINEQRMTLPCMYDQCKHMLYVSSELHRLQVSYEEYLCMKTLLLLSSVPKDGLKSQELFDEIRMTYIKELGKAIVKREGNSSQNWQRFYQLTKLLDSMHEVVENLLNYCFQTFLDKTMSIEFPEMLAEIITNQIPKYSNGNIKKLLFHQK

[5] = molecular target: T4, Muscarinic acetylcholine receptor M1 (Homo sapiens, UniProt P11229); assay type: functional
T4 sequence (P11229 whole entry): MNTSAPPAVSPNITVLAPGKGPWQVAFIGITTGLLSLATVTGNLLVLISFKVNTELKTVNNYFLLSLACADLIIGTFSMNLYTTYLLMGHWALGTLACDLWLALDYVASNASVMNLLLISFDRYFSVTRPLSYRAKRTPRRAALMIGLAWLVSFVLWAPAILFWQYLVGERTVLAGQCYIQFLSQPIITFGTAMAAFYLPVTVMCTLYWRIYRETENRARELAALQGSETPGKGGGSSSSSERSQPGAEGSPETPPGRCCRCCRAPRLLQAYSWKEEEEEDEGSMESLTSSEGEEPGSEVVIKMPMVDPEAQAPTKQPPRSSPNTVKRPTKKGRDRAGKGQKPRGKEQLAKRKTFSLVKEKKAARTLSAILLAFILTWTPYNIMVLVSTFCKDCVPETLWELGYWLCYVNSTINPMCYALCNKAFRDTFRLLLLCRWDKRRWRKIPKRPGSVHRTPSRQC

Histamine H1 receptor = Histamine H1 receptor (Homo sapiens, UniProt P35367)
Chain of Histamine H1 receptor (P35367 whole entry): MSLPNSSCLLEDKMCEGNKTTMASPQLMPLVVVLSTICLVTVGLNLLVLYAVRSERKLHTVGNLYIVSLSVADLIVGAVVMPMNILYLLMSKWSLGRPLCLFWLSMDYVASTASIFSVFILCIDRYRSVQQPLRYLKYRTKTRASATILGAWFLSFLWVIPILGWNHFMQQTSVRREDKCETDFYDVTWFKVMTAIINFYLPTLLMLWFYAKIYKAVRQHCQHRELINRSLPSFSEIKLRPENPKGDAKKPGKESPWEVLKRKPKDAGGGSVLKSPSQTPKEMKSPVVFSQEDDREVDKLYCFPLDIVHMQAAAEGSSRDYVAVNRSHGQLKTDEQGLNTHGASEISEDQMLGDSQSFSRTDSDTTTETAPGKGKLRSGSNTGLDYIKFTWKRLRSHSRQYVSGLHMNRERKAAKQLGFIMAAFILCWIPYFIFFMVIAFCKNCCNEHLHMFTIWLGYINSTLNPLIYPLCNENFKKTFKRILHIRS

Vasopressin V1a receptor = Vasopressin V1a receptor (Homo sapiens, UniProt P37288)
Chain of Vasopressin V1a receptor (P37288 whole entry): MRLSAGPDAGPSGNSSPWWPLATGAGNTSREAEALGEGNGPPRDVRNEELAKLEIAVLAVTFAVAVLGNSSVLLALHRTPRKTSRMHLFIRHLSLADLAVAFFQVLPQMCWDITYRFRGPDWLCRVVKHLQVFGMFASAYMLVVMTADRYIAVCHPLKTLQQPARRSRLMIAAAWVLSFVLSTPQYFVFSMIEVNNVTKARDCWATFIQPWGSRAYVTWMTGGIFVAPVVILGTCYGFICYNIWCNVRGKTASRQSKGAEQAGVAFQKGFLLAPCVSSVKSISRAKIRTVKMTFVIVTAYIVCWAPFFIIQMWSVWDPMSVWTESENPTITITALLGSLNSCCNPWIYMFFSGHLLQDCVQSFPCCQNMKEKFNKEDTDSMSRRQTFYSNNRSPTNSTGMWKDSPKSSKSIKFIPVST
Further: assay procedure not described here.

Chain of Sodium-dependent dopamine transporter (Q01959 whole entry): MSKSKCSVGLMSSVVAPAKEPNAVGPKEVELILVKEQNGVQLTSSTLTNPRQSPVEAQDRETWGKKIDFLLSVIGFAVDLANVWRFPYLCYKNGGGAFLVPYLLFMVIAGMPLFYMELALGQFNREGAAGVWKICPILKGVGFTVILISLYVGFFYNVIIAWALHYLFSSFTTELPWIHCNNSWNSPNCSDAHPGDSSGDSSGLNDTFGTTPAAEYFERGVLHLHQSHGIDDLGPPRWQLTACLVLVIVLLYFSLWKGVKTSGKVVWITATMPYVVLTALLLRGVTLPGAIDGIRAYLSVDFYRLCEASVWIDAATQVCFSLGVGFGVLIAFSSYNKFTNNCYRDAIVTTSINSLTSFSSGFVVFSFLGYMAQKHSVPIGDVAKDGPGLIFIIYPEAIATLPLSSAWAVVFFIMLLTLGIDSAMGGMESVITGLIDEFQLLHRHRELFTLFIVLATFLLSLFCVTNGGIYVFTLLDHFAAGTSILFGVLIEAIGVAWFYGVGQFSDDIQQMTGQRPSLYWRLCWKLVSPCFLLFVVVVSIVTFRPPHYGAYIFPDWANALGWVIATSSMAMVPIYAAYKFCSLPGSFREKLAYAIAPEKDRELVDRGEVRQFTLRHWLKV
Chain of D(1A) dopamine receptor (P21728 whole entry): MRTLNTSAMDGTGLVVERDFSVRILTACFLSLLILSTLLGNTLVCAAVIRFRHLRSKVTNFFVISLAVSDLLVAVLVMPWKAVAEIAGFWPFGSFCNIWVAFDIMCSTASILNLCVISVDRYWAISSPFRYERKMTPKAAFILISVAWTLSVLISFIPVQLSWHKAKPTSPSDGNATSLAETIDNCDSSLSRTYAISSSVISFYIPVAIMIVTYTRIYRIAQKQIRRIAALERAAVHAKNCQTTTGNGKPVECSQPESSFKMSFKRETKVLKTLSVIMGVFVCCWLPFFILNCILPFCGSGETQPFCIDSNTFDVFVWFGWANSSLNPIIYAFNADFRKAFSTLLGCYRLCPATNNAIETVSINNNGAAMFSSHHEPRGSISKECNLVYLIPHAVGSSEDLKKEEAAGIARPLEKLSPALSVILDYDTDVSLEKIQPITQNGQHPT

| Structure (SMILES) | AC50 [1] | AC50 (D(1A) dopamine receptor) | AC50 [2] | AC50 (Adenosine receptor A2a) | AC50 [3] | AC50 [4] | AC50 (Glucocorticoid receptor) | AC50 [5] | AC50 (Histamine H1 receptor) | AC50 (Vasopressin V1a receptor) |
| --- | --- | --- | --- | --- | --- | --- | --- | --- | --- | --- |
| CCC1(C)CC(=O)NC1=O (stereo not drawn) [ETHOSUXIMIDE] | > 10 µM | > 30 µM | > 30 µM | > 10 µM | > 10 µM | > 10 µM | > 10 µM |  |  |  |
| CCN(CC)C(C)C(=O)c1ccccc1 (stereo not drawn) [DIETHYLPROPION] | > 30 µM | > 10 µM | > 30 µM | > 30 µM | > 30 µM | > 10 µM |  | > 10 µM | 12 µM | > 30 µM |
| Cc1ccc(-c2ncc(Cl)cc2-c2ccc(S(C)(=O)=O)cc2)cn1 [ETORICOXIB] | > 10 µM | > 10 µM | > 10 µM | > 10 µM | > 10 µM | > 10 µM |  | > 10 µM | > 10 µM | > 30 µM |
| OCCN(CCO)c1nc(N2CCCCC2)c2nc(N(CCO)CCO)nc(N3CCCCC3)c2n1 [DIPYRIDAMOLE] | > 30 µM | > 30 µM | > 30 µM | > 30 µM | > 30 µM | > 30 µM |  |  |  |  |
| CC(C)(C)NCC(O)COc1cccc2c1CC(O)C(O)C2 (stereo not drawn) [NADOLOL] | > 10 µM | > 10 µM | > 30 µM | > 10 µM | > 10 µM | > 10 µM | > 10 µM |  |  |  |
| Nc1nc(Cl)nc2c1ncn2[C@@H]1O[C@H](CO)[C@@H](O)[C@@H]1F [CLOFARABINE] | > 30 µM | > 30 µM | > 30 µM | 22.1 µM | > 30 µM | > 10 µM |  | > 30 µM | > 30 µM | > 30 µM |
| CC1CC(OC(=O)C(O)c2ccccc2)CC(C)(C)C1 (stereo not drawn) [CYCLANDELATE] | > 30 µM | > 10 µM | > 30 µM | > 10 µM | > 30 µM | > 10 µM |  |  |  |  |
| COc1ccc(-n2nc(C(N)=O)c3c2C(=O)N(c2ccc(N4CCCCC4=O)cc2)CC3)cc1 [APIXABAN] | > 30 µM | > 30 µM | > 30 µM | > 30 µM | > 30 µM | > 30 µM |  | > 30 µM | > 30 µM | > 30 µM |
| CC1Cc2ccccc2N1NC(=O)c1ccc(Cl)c(S(N)(=O)=O)c1 (stereo not drawn) [INDAPAMIDE] | > 30 µM | > 10 µM | > 30 µM | > 30 µM | > 30 µM | > 10 µM |  |  |  |  |
| CC(C(=O)O)c1ccc(C(=O)c2ccccc2)s1 (stereo not drawn) [TIAPROFENIC ACID] | > 10 µM | > 10 µM | > 30 µM | > 10 µM | > 10 µM | > 10 µM |  | > 10 µM |  | > 10 µM |
| CCc1ccc(C(=O)C(C)CN2CCCCC2)cc1 (stereo not drawn) [EPERISONE] | > 30 µM | > 30 µM | > 30 µM | > 30 µM | > 30 µM | > 30 µM | > 30 µM |  |  |  |
